The text below walks through data of US20190224278A1, “PRODUCING METHOD OF ANTIMICROBIAL PEPTIDE WITH ENHANCED ADHESION AND USES THEREOF” (Intelligent Synthetic Biology Center, priority 2018, published 2019).

In brackets after ≈: the same amount, converted by molar mass. Non-standard residues stand in square brackets, D forms with d. Residues, ends and D or L forms follow the SMILES beside them. No end group written: not given here. Dopa = N[C@@H](Cc1ccc(O)c(O)c1)C(=O)O

Assay [1] concerns E. coli. Type of assay: cell-based, Escherichia coli. Conditions: 18 h. On the procedure:
In order to confirm the antimicrobial activity of the adhesive antimicrobial peptides prepared in Experimental Example 1-1, the minimal inhibitory concentration (MIC) which inhibits the growth of E. coli was identified by using a method disclosed in Nature Protocols. 2008; 3(2):163-175. Briefly, a culture medium in which a single colony had been grown for 16 hours was subcultured and grown until OD600 reached 0.4 to 0.6, which corresponds to logarithmic growth. Thereafter, the number of cells was calculated according to the OD values, and the number of cells was set at 10^6 cell/mL. When a Mueller-Hinton Broth (MHB) was loaded to a polypropylene 96-well plate, 90 μL was added to the first row of the plate and 100 μL was added to the control wells, and 50 μL was added to the remaining wells. Thereafter, the peptide solution was prepared at a concentration of […], and 10 μL thereof was added to each well of the first row. The peptide solution was mixed with the medium using a multi-pipette, and then 50 μL was transferred to the second row (B). At this time, the peptide was diluted to half concentration, and the peptide was transferred up to the seventh row by the same method so that the peptide (64 μM to 1 μM) was dissolved in the medium. 10^6 cell/mL of Escherichia coli, which had been prepared previously, was added thereto, and then the plate was cultured for 18 hours. Thus, the final concentration range of the peptide used in the experiment became 32 μM to 0.5 μM. After culturing for 18 hours, the OD values were measured using a microplate reader (Tecan i-control 200 pro), and the MIC values were identified.

For assay [2], the system named is E. coli. The assay is described as follows: Antimicrobial activity of the coated surface (modified ISO 22196 / colony counting assay). Type of assay: cell-based, Escherichia coli. Conditions: coated on polystyrene at 25, 50 and 100 μM, E. coli cultured 24 hours. The protocol:
In order to confirm the antimicrobial activity in the state where the antimicrobial peptides are coated, the experiment was carried out by an ISO 22196 method in which some steps were changed. Based on the results of Experimental Example 2-1 above, the experiment on the antimicrobial activity was carried out by only using the NKCs to which 3, 5, and 7 DOPA moieties were conjugated (i.e., NKC-L-O3, NKC-L-O5, NKC-L-O7, respectively). Each of NKC-L-O3, NKC-L-O5, and NKC-L-O7 was coated on a polystyrene surface at different concentrations of 25 μM, 50 μM, and 100 μM, and then E. coli in logarithmic phase (10^6 cell/mL) was cultured on the coated surface for 24 hours. After the culture, the culture medium was diluted to a certain concentration and smeared on a plate, and the CFU values were confirmed after 16 hours. The E. coli death level, calculated by comparing the above CFU values with CFU values of the uncoated surface, is represented using the following equation.
Antimicrobial Activity=(1−CFU of Surface of Sample/CFU of Control)×100
In order to measure the antimicrobial activity of NKC-L-O5 (100 μM) according to coating time, a colony counting assay was carried out. […] The plate was cultured at 37° C. for 16 hours, and then the colonies were counted.

On to `CC[C@H](C)[C@H](NC(=O)CNC(=O)[C@H](CCCCN)NC(=O)[C@H](CCCCN)NC(=O)[C@H](CCC(N)=O)NC(=O)[C@H](CC(C)C)NC(=O)[C@H](CCCCN)NC(=O)[C@H](CC(C)C)NC(=O)[C@H](CC(C)C)NC(=O)[C@H](CCCCN)NC(=O)[C@H](CCCCN)NC(=O)[C@H](CC(C)C)NC(=O)[C@H](CC(C)C)NC(=O)[C@H](CCCCN)NC(=O)[C@H](CCSC)NC(=O)[C@H](C)NC(=O)[C@H](CCCCN)NC(=O)[C@@H]1CCCN1C(=O)[C@H](C)N)C(=O)NCC(=O)NCC(=O)NCC(=O)NCC(=O)N[C@@H](CO)C(=O)NCC(=O)NCC(=O)NCC(=O)NCC(=O)N[C@@H](CO)C(=O)N[C@@H](Cc1ccc(O)c(O)c1)C(=O)O` [NKC-(G4S)2-DOPA1] (HELM PEPTIDE1{A.P.K.A.M.K.L.L.K.K.L.L.K.L.Q.K.K.G.I.G.G.G.G.S.G.G.G.G.S.[O=C(O)[C@H](Cc1ccc(O)c(O)c1)N[*:1]]}$$$$V2.0; N-terminus and C-terminus assumed), for which the minimum inhibitory concentration (MIC) – broadly, the lowest concentration found to suppress growth – in assay [1] is 8 µM (≈ 23.7 µg/mL).

Turning to `CC[C@H](C)[C@H](NC(=O)CNC(=O)[C@H](CCCCN)NC(=O)[C@H](CCCCN)NC(=O)[C@H](CCC(N)=O)NC(=O)[C@H](CC(C)C)NC(=O)[C@H](CCCCN)NC(=O)[C@H](CC(C)C)NC(=O)[C@H](CC(C)C)NC(=O)[C@H](CCCCN)NC(=O)[C@H](CCCCN)NC(=O)[C@H](CC(C)C)NC(=O)[C@H](CC(C)C)NC(=O)[C@H](CCCCN)NC(=O)[C@H](CCSC)NC(=O)[C@H](C)NC(=O)[C@H](CCCCN)NC(=O)[C@@H]1CCCN1C(=O)[C@H](C)N)C(=O)NCC(=O)NCC(=O)NCC(=O)NCC(=O)N[C@@H](CO)C(=O)NCC(=O)NCC(=O)NCC(=O)NCC(=O)N[C@@H](CO)C(=O)N[C@@H](Cc1ccc(O)c(O)c1)C(=O)N[C@@H](Cc1ccc(O)c(O)c1)C(=O)N[C@@H](Cc1ccc(O)c(O)c1)C(=O)O` [NKC-(G4S)2-DOPA3] (H-APKAMKLLKKLLKLQKKGIGGGGSGGGGS[Dopa][Dopa][Dopa]-OH; N-terminus and C-terminus assumed), the “antimicrobial activity in coated state, dependence” value in assay [2] is “antimicrobial activity dependent on the number of DOPA moieties and the concentration of the NKC”. Also, the MIC in assay [1] came to 8 µM (≈ 26.5 µg/mL). The compound `CC[C@H](C)[C@H](NC(=O)CNC(=O)[C@H](CCCCN)NC(=O)[C@H](CCCCN)NC(=O)[C@H](CCC(N)=O)NC(=O)[C@H](CC(C)C)NC(=O)[C@H](CCCCN)NC(=O)[C@H](CC(C)C)NC(=O)[C@H](CC(C)C)NC(=O)[C@H](CCCCN)NC(=O)[C@H](CCCCN)NC(=O)[C@H](CC(C)C)NC(=O)[C@H](CC(C)C)NC(=O)[C@H](CCCCN)NC(=O)[C@H](CCSC)NC(=O)[C@H](C)NC(=O)[C@H](CCCCN)NC(=O)[C@@H]1CCCN1C(=O)[C@H](C)N)C(=O)NCC(=O)NCC(=O)NCC(=O)NCC(=O)N[C@@H](CO)C(=O)NCC(=O)NCC(=O)NCC(=O)NCC(=O)N[C@@H](CO)C(=O)N[C@@H](Cc1ccc(O)c(O)c1)C(=O)N[C@@H](Cc1ccc(O)c(O)c1)C(=O)N[C@@H](Cc1ccc(O)c(O)c1)C(=O)N[C@@H](Cc1ccc(O)c(O)c1)C(=O)N[C@@H](Cc1ccc(O)c(O)c1)C(=O)O` [NKC-(G4S)2-DOPA5] (H-APKAMKLLKKLLKLQKKGIGGGGSGGGGS[Dopa][Dopa][Dopa][Dopa][Dopa]-OH) gave a minimum inhibitory concentration (MIC) in assay [1] of 8 µM (≈ 29.4 µg/mL). In other words, the single-digit micromolar range. `CC[C@H](C)[C@H](NC(=O)CNC(=O)[C@H](CCCCN)NC(=O)[C@H](CCCCN)NC(=O)[C@H](CCC(N)=O)NC(=O)[C@H](CC(C)C)NC(=O)[C@H](CCCCN)NC(=O)[C@H](CC(C)C)NC(=O)[C@H](CC(C)C)NC(=O)[C@H](CCCCN)NC(=O)[C@H](CCCCN)NC(=O)[C@H](CC(C)C)NC(=O)[C@H](CC(C)C)NC(=O)[C@H](CCCCN)NC(=O)[C@H](CCSC)NC(=O)[C@H](C)NC(=O)[C@H](CCCCN)NC(=O)[C@@H]1CCCN1C(=O)[C@H](C)N)C(=O)NCC(=O)NCC(=O)NCC(=O)NCC(=O)N[C@@H](CO)C(=O)NCC(=O)NCC(=O)NCC(=O)NCC(=O)N[C@@H](CO)C(=O)N[C@@H](Cc1ccc(O)c(O)c1)C(=O)N[C@@H](Cc1ccc(O)c(O)c1)C(=O)N[C@@H](Cc1ccc(O)c(O)c1)C(=O)N[C@@H](Cc1ccc(O)c(O)c1)C(=O)N[C@@H](Cc1ccc(O)c(O)c1)C(=O)N[C@@H](Cc1ccc(O)c(O)c1)C(=O)N[C@@H](Cc1ccc(O)c(O)c1)C(=O)O` [NKC-(G4S)2-DOPA7] (H-APKAMKLLKKLLKLQKKGIGGGGSGGGGS[Dopa][Dopa][Dopa][Dopa][Dopa][Dopa][Dopa]-OH; N-terminus and C-terminus assumed) gave a minimal inhibitory concentration (MIC) in assay [1] of 16 µM (≈ 64.6 µg/mL). Still for that read-out and setting: in the case of APKAMKLLKKLLKLQKKGI [NKC] it was 1 µM.
